According to patent US7385039B2, “Methods and compositions for regulating imidazoline receptors” (priority 1998, dated 2008):
Entries after “also recorded” stand apart in the source; their conditions may differ.

Columns and labels:
[1] = tested on: I3R; test: I3R model: insulin release from rat islets of Langerhans; type: cell-based
Description: Islets of Langerhans from male Wistar rats were isolated by collagenase digestion in a medium of bicarbonate-buffered physiological saline solution containing 4 mM D-glucose and 1 mM CaCl2. Islets were selected under a binocular dissecting microscope and were used within two hours of isolation. Islets from humans were isolated from heart-beating cadaver organ donors by collagenase digestion and density gradient centrifugation (Chan, S. L. F., et al., 1997, Brit. J. Pharmacol. 120:926-932).
Incubations were done in 96-well plates. Isolated islets were incubated in 100 μl buffer solution supplemented with bovine serum albumin in humidified air: CO2 (95:5%) at 37° C. in the presence of test agents. To eliminate any potential alpha-2 responses, yohimbine (10 μM), a potent alpha2-adrenergic blocker, was included in all incubations. After 60 min incubation, samples of medium were removed for measurement of insulin release by radioimmunoassay using anti-bovine insulin antiserum. Presence of insulin in the test media were compared to controls; positive differences represented amounts of insulin released. In reversal experiments, diazoxide (e.g., 200 μM) was pre-incubated to block glucose-induced insulin release. In these studies, test reagents were used to determine if they were capable of overcoming diazoxide's inhibitory effects on K+ ATP channels, a well known action of imidazoline secretagogues in islet cells. For example, efaroxan (an inhibitor of I-1 responses in adrenal medullary cells) is a well known I-3 agonist, i.e., it stimulates (at 100 μM) release of insulin and overcomes diazoxide inhibition thus illustrating again the dictomy between I1 and I3 receptor subtypes.
I3R model: Insulin release from pancreas (Eglen, R. M., Hudson, A. L., Kendall, D. A., Nutt, D. J., Morgan, N. G., Wilson, V. G. & Dillon, M. P. (1998) TIPS 19, 381-390; Chan, S. L. F. (1998) Gen. Pharmacol. 31, 525-529; Morgan, N. G. (1999) Exp. Opin. Invest. Drugs 8, 575-584). Islets of Langerhans from male Wistar rats or human pancreata were isolated by collagenase digestion. Hand-picked islets were incubated in NaHCO3-buffered saline containing 1 mM CaCl2, 1 mg/ml BSA and test reagents. After incubation, insulin levels in supernatants were analyzed by RIA. The I3-blocker, KU-14R, served to verify I3R function.

[2] = tested on: SH rats; test: Mean arterial pressure and heart rate after microinjection into the RVLM of rats; type: in vivo, rat; conditions: SH rats, 100 nmol into RVLM
Description: Effects of ribotide on mean arterial pressure (MAP) and heart rate (HR). Bilateral I-4-AA-RP microinjections (60 nl, 100 nmol) into the RVLM of SH rats were performed (Emsberger, P. & Haxhiu, M. A. (1997) Am. J. Physiol. 273, R1572-R1579) after the sympatho-excitatory area was confirmed by showing glutamate-induced MAP elevation ≧30 mm Hg. MAP and HR values were measured every 5 min. After each experiment, the injection site was marked by infusion of rhodamine microspheres. Changes were assessed relative to baseline values by two-way repeated measures ANOVA and Dunnett's test. A second group of SH rats (injection controls) received vehicle injections to control for injection effects and for volume artifacts due to multiple injections. Vehicle contained 2 nmol rilmenidine, a sub-threshold dose, far below that known to cause any detectable effect (Gomez, R. E., Emsberger, P., Feinland, G. & Reis, D. J. (1991) Eur. J. Pharmacol. 195, 181-191). In a follow-up study, SH rats (N=6) were given I-4-AA-RP then moxonidine. When used alone, it reduces MAP to normotensive levels (Emsberger, P., Elliott, H. L., Weimann, H.-J., Raap, A., Haxhiu, M. A., Hofferber, E., Low-Kroger, A., Reid, J. L. & Mest, H. J. (1993) Cardiovas. Drug Rev. 11, 411-431).

[3] = target: Imidazoline I Sites; test: [125I]p-iodoclonidine competition binding to bovine RVLM membranes, imidazoline sites; conditions: bovine RVLM membranes, [125I]PIC; read-out: K1 in RVLM, parallel assays
Excerpt: Whole bovine brains and adrenal glands were obtained from a local slaughterhouse. Brains were immediately placed on a chilled glass plate, washed with ice-cold Krebs'-Henseleit buffer, and dissected. The rostral medulla was isolated by transecting the brainstem rostrally at the posterior margin of the trapezoid body and caudally 1 cm caudal to the obex. The pia-arachnoid was removed, and the lateral medulla was isolated by a sagittal section through the lateral margin of the pyramids, and then bisected. The ventral half was defined as the ventrolateral medulla (VLM). Brain samples were transported on ice to the laboratory and processed immediately.
Fresh bovine VLM was homogenized by using a polytron (Tekmar Tissuemizer, setting 80 for 2×15 sec) in 20 volumes of ice-cold Hepes-buffered isotonic sucrose (pH brought to 7.4 with Tris base) containing the protease inhibitors (1,10)-phenanthroline (100 μM) and phenylmethylsulfonyl fluoride (50 μM) in order to inhibit degradation of receptor protein. Bovine adrenomedullary cells were homogenized in 15 ml Hepes-buffered isotonic sucrose by 10 strokes in a glass-glass hand-held homogenizer. All three homogenates were centrifuged at 1000×g for 5 min at 4° C. to remove nuclei and debris. The pellets (P1) were resuspended in 20 ml of homogenization buffer, and centrifuged again at 1000×g for 5 min. The combined supernatants were centrifuged at 48,000 g for 18 min at 4° C., and the resulting P2 pellet was resuspended in 10 to 25 volumes of 50 mM Tris-HCl buffer (pH 7.7) containing 5 mM EDTA. After recentrifugation at 48,000 g for 18 min, the resulting membrane pellet was resuspended in Tris-HCl containing 25 mM NaCl, preincubated for 30 min at 25° C., chilled on ice, centrifuged again, resuspended a final time in Tris-HCl alone, centrifuged, flash-frozen, and stored at −70° C. for up to three months.
Radioligand binding assays with [^3H]clonidine or [^125I]p-iodoclonidine for determination of specific membrane binding to VLM and renal medulla imidazoline sites and α2-adrenergic receptors were performed by a modification of methods previously described (Ernsberger P. et al., 1997, J. Hypertension 1997, 15:S9-S23). Membranes were slowly thawed and resuspended in Tris-Hepes buffer (5.0 mM; pH 7.7 at 25° C., containing 0.5 mM EDTA, 0.5 mM EGTA, and 0.5 mM MgCl2) at a concentration of 1 mg protein/ml for the VLM, 4 mg protein/ml for the renal medulla, and 0.2 mg protein/ml for adrenomedullary cells. Assays were conducted in a total volume of 250 μl in polypropylene 96-well plates (Beckman Macrowell), and each well contained 125 μl membrane suspension, 25 μl radioligand, and 100 μl drug or vehicle. Incubations were initiated by the addition of membrane and were carried out for 30 min at 22° C. Nonspecific binding was defined in the presence of 10 μM BDF-6143, an imidazoline adrenergic agent. Specific α2-adrenergic binding was defined by inhibition with (−)epinephrine (0.1 mM). In experiments using catecholamines, all samples contained ascorbic acid in a final concentration of 0.001%. Incubations were terminated by vacuum filtration using a cell harvester (Brandel) equipped with Teflon tubing to reduce absorption of the radioligand over glass fiber filters (Schleicher & Schuell #34) which were preincubated for 4 h at 4° C. in 0.03% polyethylimine to reduce nonspecific binding to the filter. The filters were washed four times with 5 ml ice-cold Tris-HCl, placed in scintillation vials, covered with 4 ml scintillation cocktail (BioSafe II, Research Products International), and counted at 50% efficiency (Beckman LS5801). Protein was assayed by the bicinchoninic acid method.
Data were obtained as dpm and transferred to the Equilibrium Binding Data Analysis (EBDA) program for initial processing; 4 to 10 experiments were analyzed simultaneously by using the LIGAND program for nonlinear curve-fitting. Protein assay data were also analyzed by nonlinear curve-fitting.
Competition binding assays. […]

[4] = tested on: I1R; test: I1R model: [3H]arachidonic acid release from PC-12 cells; type: cell-based
Description: Assays for measuring imidazoline receptor-mediated arachidonic acid release from PC12 cells is as described in Ernsberger et al., (1995, FASEB J. 9:A114).
I1R model: [^3H]Arachidonic acid (AA) release from PC-12 cells. Assays (Emsberger, P. (1998) J. Auton. Nerv. Syst. 72, 147-154 Ernsberger, P. (1998) J. Auton. Nerv. Syst. 72, 147-154) were done after a 30 min washout to attain a stable background. Cells were superfused with 0.01% BSA in Krebs buffer for seven 1-min fractions (baseline), then treated with 10 μM or 100 μM I-4-AA-RP alone, or together with efaroxan (10 μM), a prototypical I1-antagonist/I3-agonist. Controls included baseline release with vehicle alone (0-7 min) or vehicle containing efaroxan (5 min) before adding I-4-AA-RP. [^3H]products (>98% AA) collected in each 1-min fraction were expressed as fractional release defined as % total radioactivity incorporated into cells, corrected for [^3H]AA previously released (Ernsberger, P. (1998) J. Auton. Nerv. Syst. 72, 147-154).

[5] = tested on: I3R; conditions: cited from earlier work

O=C(O)Cc1cn([C@@H]2O[C@H](CO)[C@@H](O)[C@H]2O)cn1 [IAA-R, 1-(β-D-ribofuranosyl)-imidazole-4-acetic acid]
reversal of the inhibitory action of diazoxide on glucose-induced insulin release [1]: able to reverse the inhibitory action of diazoxide | activity relative to IAA-RP's maximal activity on insulin release ([1]; paired experiment, pancreatic beta cells): < 50% | stimulation of insulin release (in words) ([1]; rat islets): potent stimulants of insulin release | change of heart rate (HR) [2]: did not alter MAP or HR significantly | effect on MAP (in words) [2]: did not alter MAP or HR significantly | Ki [3]: 266 ± 48 µM | stimulation of [3H]AA release (in words) ([4]; IAA-R 10 μM-1 mM): no significant response

CCC1(c2ncc[nH]2)Cc2ccccc2O1 (stereo not shown) [KU-14R, reference compound]
blockade of IAA-RP-induced insulin secretion ([1]; KU-14R 100 μM, IAA-RP 1 μM, diazoxide 200 μM): abolished IAA-RP-induced secretion

CCC1(C2=NCCN2)Cc2ccccc2O1 (stereo not shown) [efaroxan, reference compound]
concentration of maximal stimulation of insulin release [5]: ~100 µM | blockade of IAA-RP-induced [3H]AA release ([4]; efaroxan 10 μM, before and throughout IAA-RP superfusion): abolished responses to IAA-RP; also recorded: blocked IAA-RP-induced release
